These results are taken from PubChem BioAssay (NCI).

Common to all, as to assay: growth of human tumour cells (NCI), 48 h
Experiment [1] concerns 786-0 renal.
The test system of experiment [2] is CAKI-1 renal.
Experiment [3] relates to HCT-116 colon.
Experiment [4] deals with HL-60(TB) leukemia.
In experiment [5] the test system is HOP-62 NSCLC.
Experiment [6] concerns HOP-92 NSCLC.
Experiment [7] concerns HT29 colon.
Experiment [8] relates to MALME-3M melanoma.
Experiment [9] relates to MCF7 breast.
Experiment [10] relates to MDA-MB-435.
Experiment [11] relates to NCI-H226 lung.
The test system of experiment [12] is NCI-H23 lung.
Experiment [13] concerns OVCAR-5 ovarian.
In experiment [14] the test system is OVCAR-8 ovarian.
The test system of experiment [15] is RPMI-8226 leukemia.
For experiment [16], the system named is SK-MEL-5 melanoma.
In experiment [17] the test system is SK-OV-3 ovarian.
In experiment [18] the test system is SNB-19 CNS.
The test system of experiment [19] is T-47D breast.
Experiment [20] concerns UO-31 renal.

Molecules are shown by their SMILES.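 Test compounds were applied to cells in 96-well plates for 48 hours at 5 doses. TGI marks complete inhibition of growth.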

On to `CC1(C)CN=C(Nc2ccc(F)c(F)c2)S1`, for which the TGI in [1] is above 100 µM; in [2], above 100 µM; in experiment [3] it was above 100 µM; in [4], above 100 µM; in experiment [5], above 100 µM; in experiment [6], 90.4 µM. Moreover, the TGI in [7], in experiment [8], in [9], in experiment [10], in experiment [11] and in experiment [12] was above 100 µM throughout. Also, the TGI in [13], in experiment [14], in [15], in experiment [16], in experiment [17] and in experiment [18] was above 100 µM each time. The TGI in experiment [19] and in [20] was above 100 µM in each case.

With `CCC(=O)NCCc1c2c3c(ccnc3c3ncsc13)-c1ccccc1N2`, the TGI was above 55.4 µM in experiment [1]; above 100 µM in experiment [2]; 51.2 µM in [3]; above 13.4 µM in [4]; above 100 µM in experiment [5]; above 100 µM in [6]. In addition, the TGI was above 100 µM in experiment [7]; above 100 µM in experiment [8]; above 100 µM in [9]; above 64.5 µM in [10]; 16.7 µM in [11]; above 100 µM in experiment [12]. Also, the TGI is above 100 µM in experiment [13]; above 71.1 µM in experiment [14]; 19.8 µM in [15]; 34.2 µM in experiment [16]; above 100 µM in [17]; above 100 µM in experiment [18]. Also, the TGI in [19] and in experiment [20] was above 100 µM each time.

With `CN(C)c1ccc(C(=NN)c2ccc(N(C)C)cc2)cc1`, the TGI was 36.5 µM in experiment [1]; above 51 µM in experiment [2]; above 100 µM in experiment [3]; 3.35 µM in experiment [4]; above 57.6 µM in [5]; above 54.4 µM in experiment [6]. For the same compound, the TGI in experiment [7] is above 21.8 µM; in experiment [8] it was above 100 µM; in experiment [9], above 100 µM; in experiment [10] it was 0.298 µM; in experiment [11], above 62.4 µM; in experiment [12] it was above 37.7 µM. For the same compound, the TGI in experiment [13] is above 100 µM; in [14], above 100 µM; in experiment [15], 10.3 µM; in experiment [16], above 100 µM; in [17] it was above 85.5 µM; in experiment [18] it was above 100 µM. Further, the TGI in [19] and in experiment [20] was above 100 µM each time.

On to `O=C1C(Cl)C(c2cc3cc(Br)ccc3nc2Cl)N1c1c(Cl)cccc1Cl` (stereo unspecified), for which the TGI in experiment [1], in [2], in experiment [3], in experiment [4], in [5] and in experiment [6] was above 25 µM throughout. The TGI is above 25 µM in experiment [7]; above 25 µM in [8]; 22.6 µM in [9]; above 25 µM in [10]; above 25 µM in [11]; above 25 µM in experiment [12]. The TGI in [13] is above 25 µM; in experiment [14] it was above 25 µM; in [15] it was 23 µM; in experiment [16] it was above 25 µM; in [17] it was above 25 µM; in experiment [18], above 25 µM. Besides, the TGI is above 25 µM in [19] and 4.5 µM in experiment [20].

For `COc1ccc2c(CCNS(=O)(=O)c3ccccc3)c(C(C)=O)[nH]c2c1`, the TGI in [1], in experiment [2], in [3], in [4], in experiment [5] and in experiment [6] was above 100 µM throughout. Further, the TGI in experiment [7] was above 100 µM; in experiment [8] it was above 100 µM; in experiment [9], above 100 µM; in experiment [10], above 75.6 µM; in [11], above 100 µM; in [12] it was above 100 µM. In addition, the TGI in experiment [13] was above 100 µM; in experiment [14], above 100 µM; in experiment [15], above 100 µM; in [16] it was above 68.1 µM; in [17] it was above 100 µM; in [18], above 100 µM. Moreover, the TGI in experiment [19] is above 86.8 µM; in experiment [20] it was above 100 µM.

Take `CC1OC(O[C@H]2CC[C@]3(C=O)[C@H]4CC[C@]5(C)[C@H](C6=CC(=O)OC6)CC[C@]5(O)[C@@H]4C=C[C@]3(O)C2)CC(O)C1O` (stereo partly specified): the TGI in [1] worked out at 0.296 µM; in experiment [2] it was 0.428 µM; in experiment [3] it was 0.349 µM; in [4], 0.689 µM; in experiment [5] it was 0.503 µM; in experiment [6], 2.62 µM. The TGI in experiment [7] was 1.5 µM; in experiment [8], 0.361 µM; in [9], 2.71 µM; in experiment [10], 0.701 µM; in experiment [11], 1.33 µM; in experiment [12], 0.494 µM. For the same compound, the TGI turned out to be 1.42 µM in experiment [13]; 0.754 µM in [14]; 2.37 µM in [15]; 0.359 µM in [16]; 1.02 µM in experiment [17]; 3.25 µM in experiment [18]. Besides, the values for the TGI in experiment [19] and in experiment [20] were 1.27 µM and 0.546 µM, respectively.

Consider `C=C1CC(CN2CCC(=O)NC2=O)(c2ccccc2)OC1=O` (stereo unspecified), for which the TGI in experiment [1] amounted to 15.6 µM; in [2], 7.57 µM; in experiment [3], 12.2 µM; in experiment [4] it was 4.04 µM; in [5], 40.3 µM; in experiment [6], 3.07 µM. Further, the TGI in experiment [7] was 25.3 µM; in experiment [8] it was 8.78 µM; in experiment [9], 2.71 µM; in [10], 23.6 µM; in experiment [11], 34.3 µM; in experiment [12], 22.5 µM. Besides, the TGI in experiment [13] was 29 µM; in experiment [14], 36.7 µM; in experiment [15], 7.95 µM; in experiment [16], 24.8 µM; in experiment [17], 30.4 µM; in experiment [18] it was above 56.2 µM. Moreover, the TGI in experiment [19] came out at 11.7 µM; in experiment [20] it was 32.3 µM.

Consider `c1ccc(C2=Nc3cccc4cccc(c34)N2)cc1`, for which the TGI in [1] is above 61.8 µM; in experiment [2], above 94.6 µM; in [3], 50.8 µM; in [4] it was 8.14 µM; in experiment [5], above 100 µM; in experiment [6], 52.7 µM. The TGI is above 100 µM in experiment [7]; above 77.6 µM in experiment [8]; above 69.4 µM in [9]; above 85.8 µM in [10]; above 100 µM in [11]; above 100 µM in experiment [12]. Further, the TGI in [13] was above 100 µM; in [14], above 87 µM; in experiment [15], above 84.6 µM; in [16], above 100 µM; in [17], above 100 µM; in [18] it was above 100 µM. For the same compound, the TGI was 21.9 µM in experiment [19] and above 56.1 µM in experiment [20].

In the case of `O=C1NC(S(=O)(=O)O)=NNC12c1ccccc1-c1ccccc12`, the TGI in experiment [1], in experiment [2], in experiment [3], in [4], in [5] and in experiment [6] was above 10 µM in each case. In addition, the TGI in experiment [7], in experiment [8], in experiment [9], in experiment [10], in [11] and in experiment [12] was above 10 µM throughout. Moreover, the TGI in experiment [14], in experiment [15], in [16], in [17], in experiment [18] and in experiment [19] was above 10 µM each time. In addition, the TGI in experiment [20] was above 10 µM.

Take `CC(=O)OCC(OC(C)=O)C(OC(C)=O)C(OC(C)=O)C(/C=N\Nc1nc2ccccc2c(=O)[nH]1)=N/Nc1nc2ccccc2c(=O)[nH]1` (stereo unspecified): the TGI in [1], in [2], in experiment [3], in [4], in experiment [5] and in experiment [6] was above 100 µM in each case. Besides, the TGI in [7], in experiment [8], in [9], in [10], in [11] and in [12] was above 100 µM in each case. The TGI in experiment [13], in experiment [14], in experiment [15], in [16], in experiment [17] and in experiment [18] was above 100 µM throughout. The TGI in experiment [19] and in experiment [20] was above 100 µM throughout.

Turning to `NC(N)=NS(=O)(=O)c1ccc(NC(=O)c2ccc3[nH]c4ccccc4c(=O)c3c2)cc1`, the TGI in experiment [1], in experiment [2], in experiment [3], in experiment [4], in experiment [5] and in experiment [6] was above 100 µM each time. The TGI in [7], in experiment [8], in [9], in experiment [10], in experiment [11] and in [12] was above 100 µM throughout. Further, the TGI in experiment [13], in experiment [14], in experiment [15], in [16], in experiment [17] and in experiment [18] was above 100 µM each time. The TGI in experiment [19] and in experiment [20] was above 100 µM throughout.

As to `COc1ccc(N2C(=O)/C(=C\c3cccc(Oc4ccccc4)c3)SC2c2ccccc2)cc1` (stereo unspecified), the TGI in [1], in experiment [2], in experiment [3], in experiment [4], in [5] and in experiment [6] was above 100 µM throughout. Further, the TGI in experiment [8], in experiment [9], in experiment [10], in experiment [11], in experiment [12] and in [13] was above 100 µM each time. The TGI in experiment [14] was above 100 µM; in experiment [15], 60.9 µM; in experiment [16], above 100 µM; in experiment [17] it was above 100 µM; in [18], above 100 µM; in [19] it was above 100 µM. Also, in [20], the TGI is above 100 µM.

With `C=CCn1cnc2c(=O)[nH]c(Nc3ccccc3)nc21`, the TGI in experiment [1], in experiment [2], in experiment [3], in experiment [4], in experiment [5] and in experiment [6] was above 100 µM in each case. Further, the TGI in experiment [7], in experiment [8], in experiment [9], in experiment [10], in experiment [11] and in experiment [13] was above 100 µM throughout. Besides, the TGI in experiment [14], in [15], in experiment [16], in experiment [17], in [18] and in experiment [19] was above 100 µM each time. This compound also gave a TGI in experiment [20] above 100 µM.

Turning to `O=[N+]([O-])c1nccn1CCCNCCCn1ccnc1[N+](=O)[O-]`, the TGI in experiment [1], in experiment [2], in [3], in experiment [4], in experiment [5] and in experiment [6] was above 100 µM in each case. The TGI in experiment [7], in experiment [8], in experiment [9], in [10], in experiment [11] and in experiment [12] was above 100 µM in each case. Also, the TGI in [13], in experiment [14], in [15], in experiment [16], in experiment [17] and in experiment [19] was above 100 µM in each case. The TGI in experiment [20] is above 100 µM.
